Measurements: patent US20240016900A1, “COLLAGEN PEPTIDE-BASED MEDICAMENT COMPOSITIONS AND USES THEREOF” (SUSTAIN HOLDINGS, LLC, priority 2022, published 2024)

Columns and labels:
[1] = system: glial lamina at the optic nerve head; test: AFM measurement of Young's Modulus and morphology in glial lamina of mouse eye explants after MMP1 treatment, with or without CMP; conditions: MMP1 alone, 5 μg/ml for 30 minutes, compared with untreated baseline
Description: To conduct these studies, mouse eyes were explanted and thin sectioned as described in Example 2 above, and sections of the glial lamina and the peripapillary sclera were examined by atomic force microscopy (AFM).
To increase the statistical significance of these studies, AFM was used to make Young's Modulus measurements across a large number of points in multiple individual locations in a given sample of glial lamina, as was done in Example 2 for peripapillary sclera.

Human type I collagen = Human type I collagen (Homo sapiens, UniProt P02452+P08123); test: AFM of type I collagen plated on substrates, MMP1 with or without CMP13; assay type: biochemical; conditions: collagen 10 μg/ml; MMP1 alone 60 ng/ml for 30 minutes
Chain of Human type I collagen (P02452 162-1218 limits assumed): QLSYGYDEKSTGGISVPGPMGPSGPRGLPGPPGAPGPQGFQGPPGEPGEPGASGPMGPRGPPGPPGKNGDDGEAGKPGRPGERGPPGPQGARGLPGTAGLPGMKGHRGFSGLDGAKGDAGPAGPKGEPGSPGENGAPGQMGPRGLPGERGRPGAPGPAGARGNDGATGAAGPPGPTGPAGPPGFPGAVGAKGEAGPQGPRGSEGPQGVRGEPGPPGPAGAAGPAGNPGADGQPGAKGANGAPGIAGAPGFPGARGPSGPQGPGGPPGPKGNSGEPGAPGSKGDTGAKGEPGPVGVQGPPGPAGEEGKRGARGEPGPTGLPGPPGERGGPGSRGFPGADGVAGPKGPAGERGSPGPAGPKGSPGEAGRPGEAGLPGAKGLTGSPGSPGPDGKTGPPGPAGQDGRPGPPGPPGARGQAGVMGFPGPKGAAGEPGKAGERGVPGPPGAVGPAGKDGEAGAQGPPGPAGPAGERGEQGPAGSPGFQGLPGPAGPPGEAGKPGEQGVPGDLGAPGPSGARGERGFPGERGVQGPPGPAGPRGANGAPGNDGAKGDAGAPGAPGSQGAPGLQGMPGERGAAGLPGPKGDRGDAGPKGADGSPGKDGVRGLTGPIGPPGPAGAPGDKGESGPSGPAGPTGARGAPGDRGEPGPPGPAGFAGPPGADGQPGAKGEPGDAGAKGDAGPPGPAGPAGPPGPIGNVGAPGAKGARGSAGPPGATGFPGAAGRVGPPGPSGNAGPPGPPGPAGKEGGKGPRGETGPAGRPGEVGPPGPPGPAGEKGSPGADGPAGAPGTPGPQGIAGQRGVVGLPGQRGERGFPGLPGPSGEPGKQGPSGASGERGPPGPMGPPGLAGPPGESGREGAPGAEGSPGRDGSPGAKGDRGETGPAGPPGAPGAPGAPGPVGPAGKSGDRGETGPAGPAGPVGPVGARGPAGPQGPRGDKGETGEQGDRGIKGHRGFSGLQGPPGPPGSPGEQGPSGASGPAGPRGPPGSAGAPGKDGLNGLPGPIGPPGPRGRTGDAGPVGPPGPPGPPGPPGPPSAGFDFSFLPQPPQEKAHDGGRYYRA
Chain of Human type I collagen (P08123 80-1119 limits assumed): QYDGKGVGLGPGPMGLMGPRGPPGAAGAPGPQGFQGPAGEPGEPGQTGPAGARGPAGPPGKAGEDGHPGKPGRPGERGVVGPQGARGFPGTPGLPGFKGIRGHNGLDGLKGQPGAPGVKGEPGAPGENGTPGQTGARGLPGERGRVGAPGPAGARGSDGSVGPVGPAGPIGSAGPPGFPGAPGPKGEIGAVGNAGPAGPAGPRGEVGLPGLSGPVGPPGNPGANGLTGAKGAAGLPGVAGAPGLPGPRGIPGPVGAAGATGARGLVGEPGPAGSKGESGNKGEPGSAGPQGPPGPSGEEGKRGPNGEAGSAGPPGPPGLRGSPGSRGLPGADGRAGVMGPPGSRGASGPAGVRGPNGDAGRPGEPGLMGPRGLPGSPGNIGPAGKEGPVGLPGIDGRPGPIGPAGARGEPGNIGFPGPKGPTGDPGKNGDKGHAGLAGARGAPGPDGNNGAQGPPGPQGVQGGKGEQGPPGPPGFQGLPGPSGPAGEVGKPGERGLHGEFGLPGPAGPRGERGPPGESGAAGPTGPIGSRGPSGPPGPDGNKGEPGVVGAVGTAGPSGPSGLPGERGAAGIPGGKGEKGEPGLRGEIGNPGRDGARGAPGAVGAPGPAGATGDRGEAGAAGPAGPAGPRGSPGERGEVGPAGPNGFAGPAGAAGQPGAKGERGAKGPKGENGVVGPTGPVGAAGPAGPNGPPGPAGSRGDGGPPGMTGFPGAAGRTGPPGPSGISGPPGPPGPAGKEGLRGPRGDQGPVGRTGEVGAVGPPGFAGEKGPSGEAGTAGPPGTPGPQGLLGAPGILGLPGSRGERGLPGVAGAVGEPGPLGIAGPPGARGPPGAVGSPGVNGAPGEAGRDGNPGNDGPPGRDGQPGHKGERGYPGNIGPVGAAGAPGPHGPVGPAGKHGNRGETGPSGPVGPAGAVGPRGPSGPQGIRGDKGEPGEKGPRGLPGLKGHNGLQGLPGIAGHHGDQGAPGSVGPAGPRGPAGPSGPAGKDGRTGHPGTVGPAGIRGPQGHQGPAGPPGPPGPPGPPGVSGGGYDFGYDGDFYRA
Description: In untreated (baseline) samples, extensive and multilamellar networks of collagen fibers, fibrils and bundles could be readily observed (FIGS. 15A, 15B).

[2] = system: peripapillary sclera in mouse eyes; test: AFM measurement of Young's Modulus in mouse peripapillary sclera explants after MMP treatment, with or without CMP; conditions: MMP1 alone, 50 μg/ml for 30 minutes, compared with untreated baseline
Description: Therefore, to examine the possible therapeutic effects of CMPs of the invention in treating myopia, studies were designed to test the effects of certain CMPs conjugates in a model of the in vivo setting—an ex vivo study of the collagen matrix in the peripapillary sclera in mouse eyes. To conduct these studies, mouse eyes were explanted and thin sectioned, and sections of the peripapillary sclera (the scleral area adjacent to the optic nerve head) were examined by atomic force microscopy (AFM).
To examine the impact of matrix metalloproteinase (MMP) treatment, with or without subsequent CMP treatment, on the stiffness of the mouse peripapillary scleral explants, samples were treated with MMP (50 μg/ml for 30 minutes), followed by either a PBS washout or by treatment with a CMP-containing formulation of the invention for 60 minutes.
To increase the statistical significance of these studies, AFM was used to make Young's Modulus measurements across a large number of points in multiple individual locations in a given sample of peripapillary sclera.

glial lamina = test: Fluorescence microscopy of disrupted (RCHP) and intact (Col1) collagen in explants, glial lamina; parameters: species or system mouse; conditions: MMP1 alone 30 minutes
Protocol: (§1) To examine the distribution of disrupted and intact collagen in such explants, samples prepared as above were treated with DAPI (to localize cell nuclei), a fluorescently labeled antibody against type I collagen (“Col1”), and a Cy3-labeled collagen hybridizing peptide (“RCHP”) which binds only to areas of disrupted collagen.

peripapillary sclera = test: Fluorescence microscopy of disrupted (RCHP) and intact (Col1) collagen in explants, peripapillary sclera; parameters: species or system mouse; conditions: MMP1 alone 30 minutes
Protocol: as §1

[3] = cited from earlier work; for melting temperature of a triple helix: Sakakibara et al. 1973

Substance: MMP1: matrix metalloproteinase 1, used to disrupt collagen in explants and on substrates
- Young's Modulus (glial lamina stiffness) [1]: significant decrease in Young's Modulus
- Young's Modulus (glial lamina stiffness) ([1]; listed as MMP): adversely affecting the stiffness of the glial lamina
- collagen fiber/fibril networks on substrate (AFM) (Human type I collagen): substantial amount of disorganized collagen and little remaining fiber/fibril formation
- Young's Modulus (scleral stiffness) [2]: significant decrease in Young's Modulus
- Young's Modulus (scleral stiffness) ([2]; listed as MMP): significantly reduced the scleral stiffness
- disrupted collagen (RCHP) (glial lamina): large amount of disrupted collagen
- intact collagen (Col1) (glial lamina): nearly devoid of intact collagen
- disrupted collagen (RCHP) (peripapillary sclera): large amount of disrupted collagen

Substance: (ProProGly)10
- melting temperature of a triple helix [3]: 24 °C

Substance: (ProHypGly)10
- melting temperature of a triple helix [3]: 58 °C
- rate at which chains fold into a triple helix ([3]; relative to (ProProGly)10, Chopra and Ananthanarayanan 1982): substantially greater
